This passage reports Activity results from ChEMBL document CHEMBL1150453, “Novel catalytic activity of immobilized spores under reduced water activity” (1997).

Holding throughout (format): functional
Assay [1] concerns Aspergillus ochraceus. In words: Compound was tested for transformation of progesterone by Dehydrated immobilized spores of Aspergillus orchraceus TS using the method Freeze-thaw.
The subject of assay [2] is Aspergillus ochraceus. Kind of assay: Compound was tested for transformation of progesterone by immobilized spores of Aspergillus orchraceus TS.
In assay [3] the test system is Aspergillus ochraceus. In words: Compound was tested for transformation of progesterone by Dehydrated immobilized spores of Aspergillus orchraceus TS using the method Ethylacetate.
Assay [4] has as its system Aspergillus ochraceus. Kind of assay: Compound was tested for transformation of progesterone by Dehydrated immobilized spores of Aspergillus orchraceus TS using the method n-Butylacetate.
The test system of assay [5] is Aspergillus ochraceus. In words: Compound was tested for transformation of progesterone by Dehydrated immobilized spores of Aspergillus orchraceus TS using the method Amylacetate.

The structures appear in SMILES notation.

With `CC(=O)C1CCC2C3CCC4=CC(=O)CCC4(C)C3[C@@H](O)CC12C` (stereo partly specified), the Activity in assay [1] is listed as 14 uM (g of spores)-1; in assay [2] it was 27.2 uM (g of spores)-1.

As to `CC(=O)OC1CCC2C3CCC4=CC(=O)CCC4(C)C3CCC12C` (stereo unspecified), in assay [1], the Activity is given as 5 uM (g of spores)-1.

Take `CC(=O)C1CCC2C3CCC4=CC(=O)C=CC4(C)C3CCC12C` (stereo unspecified): the Activity in assay [3] is listed as 23.6 uM (g of spores)-1; in assay [1] it was 7.6 uM (g of spores)-1; in assay [4], 13.8 uM (g of spores)-1; in assay [5], 16.1 uM (g of spores)-1.

Turning to `C[C@]12CCC(=O)C=C1CC[C@@H]1[C@@H]2CC[C@]2(C)C(=O)CC[C@@H]12` [ANDROSTENEDIONE], the Activity in assay [3] is on record as 58.7 uM (g of spores)-1; in assay [1] it was 14.7 uM (g of spores)-1; in assay [4], 40.4 uM (g of spores)-1; in assay [5], 42.6 uM (g of spores)-1.

As for `C[C@]12C=CC(=O)C=C1CC[C@@H]1[C@@H]2CC[C@]2(C)C(=O)CC[C@@H]12` [ANDROSTENEDONE], the Activity is listed as 22.2 uM (g of spores)-1 in assay [3], 14.4 uM (g of spores)-1 in assay [1], 15.8 uM (g of spores)-1 in assay [4] and 16.1 uM (g of spores)-1 in assay [5].

Consider `CC(=O)[C@@]1(O)CC[C@H]2[C@@H]3CCC4=CC(=O)CC[C@]4(C)[C@H]3CC[C@@]21C` [HYDROXYPROGESTERONE], for which the Activity is listed as 20.8 uM (g of spores)-1 in assay [3], 12.2 uM (g of spores)-1 in assay [4] and 13.8 uM (g of spores)-1 in assay [5].

On to `C[C@]12CCC(=O)C[C@@H]1CC[C@@H]1[C@@H]2CC[C@]2(C)[C@@H](O)CC[C@@H]12` [STANOLONE], for which the Activity in assay [3] is given as 4.2 uM (g of spores)-1; in assay [1], 5.8 uM (g of spores)-1; in assay [4] it was 2.7 uM (g of spores)-1; in assay [5], 2.9 uM (g of spores)-1.

With `C[C@]12CC[C@H]3[C@@H](CCC4=CC(=O)CC[C@@]43C)[C@@H]1CC[C@@H]2O` [TESTOSTERONE], the Activity in assay [3] is 3.9 uM (g of spores)-1; in assay [1], 5.5 uM (g of spores)-1; in assay [4], 2.6 uM (g of spores)-1; in assay [5], 2.7 uM (g of spores)-1.
